Measurements: ChEMBL document CHEMBL1201862, “PubChem BioAssay data set” (2004)
Activity calls are given as the source filed them.

Assays:
Beta-galactosidase = Beta-galactosidase (Escherichia coli, UniProt Q8VNN2); experiment: Dose response counterscreen for EBI2 assay utilizing the enzyme, b-galactosidase.; type: functional
Fatty acid synthase [1] = target: T1, Fatty acid synthase (Homo sapiens, UniProt P49327); experiment: FAS thioesterase domain inhibitors, dose response, biochemical, kinetic fluorescence intensity (AID 624326); type: functional;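 further: rate of fluorescence rise from hydrolysis of a fluorogenic O-methyl fluorescein ester substrate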
T1 sequence (P49327 whole entry, the tested form may be a part): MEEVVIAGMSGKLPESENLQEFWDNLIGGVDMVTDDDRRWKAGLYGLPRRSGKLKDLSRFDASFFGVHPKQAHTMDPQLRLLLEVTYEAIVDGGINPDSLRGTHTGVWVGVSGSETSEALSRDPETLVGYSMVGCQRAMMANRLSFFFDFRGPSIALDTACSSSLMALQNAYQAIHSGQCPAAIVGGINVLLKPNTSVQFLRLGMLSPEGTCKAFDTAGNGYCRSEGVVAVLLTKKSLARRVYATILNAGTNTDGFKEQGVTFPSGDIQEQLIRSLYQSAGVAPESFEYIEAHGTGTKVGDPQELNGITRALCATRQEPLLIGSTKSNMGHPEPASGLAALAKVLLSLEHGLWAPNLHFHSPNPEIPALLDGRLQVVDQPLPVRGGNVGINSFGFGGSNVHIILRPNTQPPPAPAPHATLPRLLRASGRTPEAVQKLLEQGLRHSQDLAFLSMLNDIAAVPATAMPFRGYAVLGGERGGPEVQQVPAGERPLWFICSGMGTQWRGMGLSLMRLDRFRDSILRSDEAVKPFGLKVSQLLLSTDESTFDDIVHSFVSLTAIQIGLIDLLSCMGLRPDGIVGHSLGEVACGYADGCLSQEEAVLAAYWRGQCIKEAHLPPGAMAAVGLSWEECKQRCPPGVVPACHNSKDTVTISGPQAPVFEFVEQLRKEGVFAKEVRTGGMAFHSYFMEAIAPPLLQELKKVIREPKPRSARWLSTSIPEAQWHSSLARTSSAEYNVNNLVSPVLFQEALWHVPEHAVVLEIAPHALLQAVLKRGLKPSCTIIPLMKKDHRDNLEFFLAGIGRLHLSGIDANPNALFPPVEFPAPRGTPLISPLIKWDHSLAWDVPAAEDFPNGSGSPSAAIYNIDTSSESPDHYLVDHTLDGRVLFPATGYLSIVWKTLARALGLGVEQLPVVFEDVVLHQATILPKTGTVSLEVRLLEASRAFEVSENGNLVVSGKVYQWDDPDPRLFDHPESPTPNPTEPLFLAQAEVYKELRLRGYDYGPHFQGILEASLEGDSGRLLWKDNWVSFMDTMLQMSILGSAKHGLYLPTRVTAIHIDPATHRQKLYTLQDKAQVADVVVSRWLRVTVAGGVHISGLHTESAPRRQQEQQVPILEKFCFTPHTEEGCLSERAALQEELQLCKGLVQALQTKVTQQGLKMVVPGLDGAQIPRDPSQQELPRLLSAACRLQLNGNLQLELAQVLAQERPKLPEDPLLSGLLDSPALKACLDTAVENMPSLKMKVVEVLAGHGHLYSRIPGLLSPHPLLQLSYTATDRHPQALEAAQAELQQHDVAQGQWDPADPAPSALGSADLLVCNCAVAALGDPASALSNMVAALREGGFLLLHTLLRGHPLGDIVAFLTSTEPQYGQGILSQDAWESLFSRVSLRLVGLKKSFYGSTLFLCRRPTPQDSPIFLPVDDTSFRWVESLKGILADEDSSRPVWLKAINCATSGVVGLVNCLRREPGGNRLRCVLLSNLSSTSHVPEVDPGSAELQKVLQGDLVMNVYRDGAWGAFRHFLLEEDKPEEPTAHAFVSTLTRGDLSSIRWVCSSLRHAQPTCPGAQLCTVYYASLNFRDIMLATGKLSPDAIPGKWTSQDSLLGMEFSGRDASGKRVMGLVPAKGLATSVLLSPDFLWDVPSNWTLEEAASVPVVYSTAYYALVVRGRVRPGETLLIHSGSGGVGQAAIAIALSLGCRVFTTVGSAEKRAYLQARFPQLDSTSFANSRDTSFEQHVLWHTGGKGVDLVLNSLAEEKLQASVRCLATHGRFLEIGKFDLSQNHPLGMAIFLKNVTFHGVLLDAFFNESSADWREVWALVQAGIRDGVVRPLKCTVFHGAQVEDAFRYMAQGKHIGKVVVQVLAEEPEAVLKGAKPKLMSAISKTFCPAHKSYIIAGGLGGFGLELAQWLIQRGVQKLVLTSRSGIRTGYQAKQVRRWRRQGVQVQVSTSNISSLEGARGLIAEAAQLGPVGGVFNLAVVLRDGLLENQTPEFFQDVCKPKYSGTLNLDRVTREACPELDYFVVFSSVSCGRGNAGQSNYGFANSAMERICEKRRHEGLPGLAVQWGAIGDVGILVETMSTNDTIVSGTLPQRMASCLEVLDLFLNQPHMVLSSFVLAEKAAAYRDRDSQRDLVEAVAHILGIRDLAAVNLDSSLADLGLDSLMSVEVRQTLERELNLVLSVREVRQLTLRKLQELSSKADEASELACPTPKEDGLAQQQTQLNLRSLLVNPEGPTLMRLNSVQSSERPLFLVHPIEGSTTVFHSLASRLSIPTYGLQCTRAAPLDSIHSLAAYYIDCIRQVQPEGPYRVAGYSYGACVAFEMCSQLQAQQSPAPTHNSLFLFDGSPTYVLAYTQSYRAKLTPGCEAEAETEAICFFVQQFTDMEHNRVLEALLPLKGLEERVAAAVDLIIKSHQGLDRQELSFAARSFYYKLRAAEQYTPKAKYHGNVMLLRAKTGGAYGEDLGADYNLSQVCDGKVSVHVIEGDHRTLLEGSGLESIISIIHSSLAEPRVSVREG

Fatty acid synthase [2] = target: T1, Fatty acid synthase; experiment: FAS thioesterase domain inhibitors, dose response, biochemical, endpoint fluorescence intensity, uHTS hits (AID 624327); type: functional;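 further: fluorescence from hydrolysis of an O-methyl fluorescein acyl ester substrate by the enzyme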
[3] = target: 26S proteasome non-ATPase regulatory subunit 14 (Homo sapiens, UniProt O00487); experiment: inhibition of proteasome subunit RPN11 – biochemical, fluorescence polarization, uHTS hits, confirmation (AID 602368); type: functional
Chain of 26S proteasome non-ATPase regulatory subunit 14 (O00487 whole entry): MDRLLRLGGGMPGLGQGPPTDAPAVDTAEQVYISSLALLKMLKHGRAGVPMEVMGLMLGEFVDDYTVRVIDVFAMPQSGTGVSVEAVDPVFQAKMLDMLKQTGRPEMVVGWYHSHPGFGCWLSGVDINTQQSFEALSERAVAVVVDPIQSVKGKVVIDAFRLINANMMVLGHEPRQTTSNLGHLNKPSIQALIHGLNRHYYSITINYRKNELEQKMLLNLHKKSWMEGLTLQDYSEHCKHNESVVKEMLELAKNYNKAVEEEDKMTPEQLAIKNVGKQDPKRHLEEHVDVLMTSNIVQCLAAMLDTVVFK

[4] = target: T2, Corticotropin-releasing factor receptor 2/Corticotropin-releasing factor-binding protein (Homo sapiens, UniProt P24387+Q13324); experiment: activators of CRF receptor 2 with binding protein – uHTS hits, confirmation (AID 602473); type: functional; conditions: read-out: EC50_Mean
T2 sequence (Q13324 whole entry): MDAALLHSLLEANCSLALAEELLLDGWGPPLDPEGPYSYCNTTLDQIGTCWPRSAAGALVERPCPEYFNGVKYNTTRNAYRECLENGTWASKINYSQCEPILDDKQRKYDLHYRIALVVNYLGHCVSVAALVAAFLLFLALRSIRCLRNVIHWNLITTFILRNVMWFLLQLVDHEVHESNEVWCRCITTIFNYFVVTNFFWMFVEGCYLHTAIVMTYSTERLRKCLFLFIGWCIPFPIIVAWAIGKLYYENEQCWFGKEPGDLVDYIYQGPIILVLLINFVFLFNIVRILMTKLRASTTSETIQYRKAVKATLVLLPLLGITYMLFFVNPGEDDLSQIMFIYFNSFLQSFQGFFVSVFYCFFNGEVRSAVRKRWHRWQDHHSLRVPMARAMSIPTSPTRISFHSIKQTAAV
T2 sequence (P24387 whole entry): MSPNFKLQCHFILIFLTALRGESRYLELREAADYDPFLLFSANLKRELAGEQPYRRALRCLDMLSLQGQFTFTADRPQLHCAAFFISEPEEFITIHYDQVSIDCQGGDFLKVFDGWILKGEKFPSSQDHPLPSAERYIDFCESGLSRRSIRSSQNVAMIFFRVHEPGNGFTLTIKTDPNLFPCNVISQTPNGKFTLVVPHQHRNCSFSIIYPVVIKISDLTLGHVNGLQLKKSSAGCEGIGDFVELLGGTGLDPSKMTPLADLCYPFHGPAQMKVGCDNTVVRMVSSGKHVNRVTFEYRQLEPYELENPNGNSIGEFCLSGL

[5] = target: 72 kDa type IV collagenase (Homo sapiens, UniProt P08253); experiment: Dose Response validation of uHTS RPN11 inhibitor hits using a MMP-2 Fluorescence assay.; type: functional
Chain of 72 kDa type IV collagenase (P08253 whole entry): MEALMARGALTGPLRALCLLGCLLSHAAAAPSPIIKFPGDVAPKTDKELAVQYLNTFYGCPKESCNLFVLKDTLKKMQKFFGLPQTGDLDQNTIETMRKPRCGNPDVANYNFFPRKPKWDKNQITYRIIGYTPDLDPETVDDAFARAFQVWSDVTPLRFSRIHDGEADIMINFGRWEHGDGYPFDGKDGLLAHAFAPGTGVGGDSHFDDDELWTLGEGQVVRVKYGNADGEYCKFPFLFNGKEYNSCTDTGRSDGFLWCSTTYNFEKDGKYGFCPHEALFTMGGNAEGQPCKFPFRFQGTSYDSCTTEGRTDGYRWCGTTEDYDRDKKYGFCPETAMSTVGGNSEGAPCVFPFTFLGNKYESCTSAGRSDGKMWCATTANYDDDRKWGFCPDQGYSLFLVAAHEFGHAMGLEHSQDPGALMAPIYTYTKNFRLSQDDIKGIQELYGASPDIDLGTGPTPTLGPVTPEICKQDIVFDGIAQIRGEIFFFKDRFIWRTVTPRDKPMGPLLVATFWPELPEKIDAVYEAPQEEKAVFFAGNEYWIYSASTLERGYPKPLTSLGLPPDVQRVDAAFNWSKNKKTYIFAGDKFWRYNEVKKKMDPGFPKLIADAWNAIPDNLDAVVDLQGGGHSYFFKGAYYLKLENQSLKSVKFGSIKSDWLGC

Prothrombin = Prothrombin (Bos taurus, UniProt P00735); experiment: thrombin inhibition, dose response, biochemical, fluorescence polarization, uHTS hits (AID 602369); type: functional
[6] = HEp-2 cell cytotoxicity, dose response, cytotoxicity control for RSV inhibitor project, HTS (AID 2410); type: functional; conditions: human respiratory syncytial virus
[7] = intracellular Trypanosoma cruzi inhibitors in host cells – cell-based, plate reader, cherry-pick samples, set 3, dose response (AID 651818); type: functional;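 further: compounds incubated with infected cells for about four days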
[8] = target: T3, Ubiquitin-conjugating enzyme E2 N (Homo sapiens, UniProt P61088); type: functional;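 further: Dose-response confirmation in a TR-FRET assay detecting UBC13-driven polyubiquitin chain formation, inhibition measured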
T3 sequence (P61088 whole entry): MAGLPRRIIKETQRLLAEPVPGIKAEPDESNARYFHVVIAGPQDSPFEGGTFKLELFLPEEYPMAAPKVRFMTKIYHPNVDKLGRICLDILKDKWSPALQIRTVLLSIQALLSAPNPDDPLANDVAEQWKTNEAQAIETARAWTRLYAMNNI

[9] = THP-1 cell cytotoxicity, dose response, cytotoxicity control for non-replicating M. tuberculosis project (AID 489025); type: functional
cells [10] = type: functional
Protein Wnt-3a = Protein Wnt-3a (Mus musculus, UniProt P27467); experiment: Wnt3a-driven reporter signaling inhibition, dose response, selectivity assay for Gli-SUFU antagonist project, Wnt-LIGHT cells, luminescence (AID 651570); type: functional; conditions: read-out: IC50_Mean;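 further: Wnt-LIGHT reporter cells stimulated with conditioned medium from Wnt3a-producing cells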
Chain of Protein Wnt-3a (P27467 whole entry): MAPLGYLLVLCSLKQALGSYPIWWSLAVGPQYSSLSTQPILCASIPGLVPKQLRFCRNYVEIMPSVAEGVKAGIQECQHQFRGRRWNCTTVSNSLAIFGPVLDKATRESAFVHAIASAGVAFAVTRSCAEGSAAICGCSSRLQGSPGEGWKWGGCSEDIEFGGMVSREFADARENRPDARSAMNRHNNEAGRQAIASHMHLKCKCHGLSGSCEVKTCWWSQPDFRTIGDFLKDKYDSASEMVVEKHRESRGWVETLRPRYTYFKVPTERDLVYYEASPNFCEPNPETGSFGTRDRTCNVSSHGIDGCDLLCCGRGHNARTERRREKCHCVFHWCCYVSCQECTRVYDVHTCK

[11] = inhibitors of SNCA 5'UTR-driven reporter translation, confirmation, H4 neuroglioma cells, luminescence (AID 1988); type: functional, cell-based
[12] = cytotoxicity toward DRD oncogenic fibroblasts, dose response, cell-based, non-viral oncogenic, luminescence (AID 1934); type: functional; conditions: Homo sapiens
BJ [13] = experiment: cells; type: functional, cell-based; conditions: Homo sapiens
[14] = cytotoxicity in MIN6 insulinoma cells, dose response, cytotoxicity control, cell-based, mouse insulinoma (AID 2122); type: functional;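 further: confirmatory high-throughput counterscreen run to flag cytotoxic compounds; mouse MIN-6 beta cells carrying an insulin promoter eGFP reporter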
[15] = insulin promoter down-regulators in MIN6 cells, imaging, high-content screening, mouse beta cells (AID 1628); type: functional
cells [16] = type: functional, cell-based
[17] = NIH-3T3 fibroblast cytotoxicity, dose response, cytotoxicity control, cell-based, fluorescence, Alamar Blue, secondary assay (AID 2327); type: functional;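 further: NIH-3T3 mouse fibroblasts cultured with fluconazole at 8 µg/mL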
BJ [18] = experiment: cytotoxicity toward BJ-TERT-LT-ST fibroblasts, dose response, cell-based, RAS-independent, luminescence (AID 1935); type: functional; conditions: Homo sapiens;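 further: BJ fibroblasts immortalized with TERT plus LT and ST oncogenes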
BJ [19] = experiment: cytotoxicity toward BJ-TERT fibroblasts, dose response, cell-based, RAS-independent, luminescence (AID 1933); type: functional; conditions: Homo sapiens
[20] = Luminescence Cell-Based Dose Response HTS to Identify Inhibitors of 5'UTR Stem-Loop Driven Prion Protein mRNA Translation in H4 Neuroglioblastoma Cells. [Related pubchem assays: 1827 (Project Summary), 1813 (Primary HTS)]; type: functional
[21] = inhibitors of intracellular T. cruzi replication, confirmation, NIH3T3 host cells, beta-gal luminescence (AID 2044); type: functional, cell-based;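 further: intracellular parasites grown in NIH/3T3 mouse fibroblasts as host cells; luminescent beta-galactosidase reporter signal from transgenic T. cruzi replicating inside host cells; inhibitors lower the luminescence signal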
INS1 = experiment: beta cell apoptosis inhibitors, cytokine rescue, dose response, luminescence, retest (AID 449756); type: functional, cell-based; conditions: Rattus norvegicus;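 further: cell death triggered by IL-1 beta plus TNF-alpha plus IFN-gamma mixture; protective hits raise ATP signal compared with cytokine alone wells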
cells [22] = type: functional, cell-based; remark: listed apart in the source
HEK293 = experiment: inhibitors of LMP1-driven NF-kB reporter, dose response, cell-based, HEK293, luciferase, cherry-pick (AID 588343); type: functional; conditions: Homo sapiens
Cytochrome P450 3A4 = Cytochrome P450 3A4 (Homo sapiens, UniProt P08684);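 further: CYP3A4 tested as one member of a cytochrome P450 panel screen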
[23] = C. albicans growth with fluconazole, confirmation, fluorescence, retest (AID 2467); type: functional, cell-based
[24] = cytotoxicity toward NIH3T3 fibroblasts, dose response, counter-screen, cell-based, ATP luminescence, mouse fibroblasts (AID 2010); type: functional;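 further: cells exposed to compound for about 90 hours before reading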
[25] = inhibitors of firefly luciferase expression or activity, dose response, H4 neuroglioma cells, luminescence (AID 1990); type: functional, cell-based
[26] = target: T4, Rac GTPase-activating protein 1 (Homo sapiens, UniProt Q9H0H5); experiment: MgcRacGAP GTPase-activating activity inhibitors, confirmation, biochemical, ADP Hunter fluorescence, primary and confirmatory (AID 624330); type: functional
T4 sequence (Q9H0H5 whole entry): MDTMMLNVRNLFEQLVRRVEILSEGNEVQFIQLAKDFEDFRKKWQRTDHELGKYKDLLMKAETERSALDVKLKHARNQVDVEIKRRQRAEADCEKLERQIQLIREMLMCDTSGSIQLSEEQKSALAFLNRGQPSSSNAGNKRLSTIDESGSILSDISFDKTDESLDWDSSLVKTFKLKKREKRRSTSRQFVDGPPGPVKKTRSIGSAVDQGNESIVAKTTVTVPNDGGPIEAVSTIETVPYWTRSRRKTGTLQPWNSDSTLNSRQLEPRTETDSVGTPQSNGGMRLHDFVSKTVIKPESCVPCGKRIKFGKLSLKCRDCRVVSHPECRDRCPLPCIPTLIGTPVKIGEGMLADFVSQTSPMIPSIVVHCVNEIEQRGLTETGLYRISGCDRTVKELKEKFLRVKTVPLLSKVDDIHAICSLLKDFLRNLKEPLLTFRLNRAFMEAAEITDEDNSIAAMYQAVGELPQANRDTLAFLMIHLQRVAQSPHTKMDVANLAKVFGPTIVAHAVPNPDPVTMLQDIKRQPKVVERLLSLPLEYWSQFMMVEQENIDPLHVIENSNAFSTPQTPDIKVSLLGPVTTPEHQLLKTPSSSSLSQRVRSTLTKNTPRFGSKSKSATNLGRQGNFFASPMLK

[27] = HeLa cell cytotoxicity, dose response, cytotoxicity control for MgcRacGAP inhibitor project (AID 624300); type: functional
[28] = microbe, parasite or virus in culture; type: functional; conditions: Mycobacterium tuberculosis
[29] = Luminescence Cell-Based Dose Confirmation HTS to Identify Activators of 5'UTR Stem-Loop Driven Alpha-Synuclein mRNA Translation in H4 Neuroglioblastoma Cells. [Related pubchem assays: 1829 (Project Summary), 1814 (Primary HTS)]; type: functional
H4 = experiment: Luminescence Cell-Based Dose Response HTS to Identify Activators of 5'UTR Stem-Loop Driven Prion Protein mRNA Translation in H4 Neuroglioblastoma Cells. [Related pubchem assays: 1829 (Project Summary), 1814 (Primary HTS)]; type: functional; conditions: Homo sapiens
[30] = Luminescence Cell-Based Dose Response HTS to Identify Activators of Luciferase Translation or Activity in H4 […] Cells. [Related pubchem assays: 1829 (Project Summary), 1814 (Primary HTS)]; type: functional

Chain of Beta-galactosidase (Q8VNN2 whole entry, the tested form may be a part): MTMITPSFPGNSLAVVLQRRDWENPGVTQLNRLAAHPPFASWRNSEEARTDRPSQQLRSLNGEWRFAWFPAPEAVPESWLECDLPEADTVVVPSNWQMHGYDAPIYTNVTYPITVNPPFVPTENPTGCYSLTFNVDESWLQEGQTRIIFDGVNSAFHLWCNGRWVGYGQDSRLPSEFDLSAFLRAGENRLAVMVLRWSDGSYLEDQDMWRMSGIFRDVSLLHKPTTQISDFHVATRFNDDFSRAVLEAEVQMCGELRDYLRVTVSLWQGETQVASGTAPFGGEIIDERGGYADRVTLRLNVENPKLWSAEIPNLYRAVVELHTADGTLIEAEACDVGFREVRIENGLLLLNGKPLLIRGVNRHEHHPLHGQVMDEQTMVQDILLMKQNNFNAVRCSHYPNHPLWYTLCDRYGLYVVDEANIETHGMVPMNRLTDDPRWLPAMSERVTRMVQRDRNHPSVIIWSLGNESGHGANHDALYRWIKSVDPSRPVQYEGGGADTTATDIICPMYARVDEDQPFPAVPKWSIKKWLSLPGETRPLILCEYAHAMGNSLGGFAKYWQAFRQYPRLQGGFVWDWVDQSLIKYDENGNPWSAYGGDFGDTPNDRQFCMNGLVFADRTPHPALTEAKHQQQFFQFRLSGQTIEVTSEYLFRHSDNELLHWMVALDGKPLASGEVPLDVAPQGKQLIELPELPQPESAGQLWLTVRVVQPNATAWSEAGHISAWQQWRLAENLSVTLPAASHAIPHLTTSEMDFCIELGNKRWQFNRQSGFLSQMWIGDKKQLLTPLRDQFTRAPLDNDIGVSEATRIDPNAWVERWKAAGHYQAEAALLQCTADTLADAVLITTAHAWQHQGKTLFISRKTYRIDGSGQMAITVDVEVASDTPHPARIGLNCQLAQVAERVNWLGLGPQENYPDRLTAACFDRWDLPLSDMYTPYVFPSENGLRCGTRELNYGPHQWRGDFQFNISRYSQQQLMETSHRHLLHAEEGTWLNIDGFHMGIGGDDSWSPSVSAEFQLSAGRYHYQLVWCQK

COc1ccc(/C=C(\C#N)C(=O)Nc2cc(S(=O)(=O)N3CCOCC3)ccc2N2CCCC2)cc1
IC50 (Beta-galactosidase): > 80 µM (inactive)

CN(CCOc1ccccc1)CC(=O)Nc1ccc([N+](=O)[O-])cc1Cl
IC50 (Fatty acid synthase [1]): 12.7 µM (active)
IC50 (Fatty acid synthase [2]): 9.54 µM (active)

O=C(/C=C/c1ccccc1)N1CCN(c2cccc(Cl)n2)CC1
IC50 (Beta-galactosidase): > 80 µM (inactive)

O=C(CSc1ccc([N+](=O)[O-])cn1)Nc1ccc2c(c1)OCCO2
IC50 (Fatty acid synthase [1]): 4.17 µM (active)
IC50 (Fatty acid synthase [2]): 1.51 µM (active)

COc1ccc(-c2nn(CCC#N)cc2C(=O)Nc2ccc(C(C)=O)cc2)cc1[N+](=O)[O-]
IC50 (Fatty acid synthase [1]): 4.1 µM (active)
IC50 (Fatty acid synthase [2]): 1.41 µM (active)

O=C(c1cc(COc2cccc(C(F)(F)F)c2)on1)N1C[C@@H]2CCC[C@H]1C2
IC50 (Fatty acid synthase [1]): 10.7 µM (active)
IC50 (Fatty acid synthase [2]): 12.4 µM (active)

Nc1c(-c2cccc(Cl)c2)cnn1-c1cccc([N+](=O)[O-])c1
IC50 (Fatty acid synthase [1]): 12 µM (active)
IC50 (Fatty acid synthase [2]): 11 µM (active)

CCOc1cc(/C=C2\C(=N)N3N=C(CC(=O)N4CCCCC4)SC3=NC2=O)ccc1O
IC50 [3]: 37.6 µM (active)
EC50 [4]: 6.32 µM (active)
IC50 [5]: > 100 µM (inactive)
IC50 (Prothrombin): 33.4 µM (active)

CCc1ccc2oc(C(=O)N3CCN(c4ccccc4OC)CC3)cc(=O)c2c1
IC50 (Beta-galactosidase): > 80 µM (inactive)

Cc1ccc(C2CC(c3cccs3)=NN2S(=O)(=O)c2ccc(C)cc2)cc1 (configuration not stated)
CC50 [6]: > 50 µM (active)
IC50 [3]: 43.4 µM (active)
IC50 [5]: > 100 µM (inactive)
IC50 (Prothrombin): 55.9 µM (active)

C[C@@H]1CN([C@H](C)CO)C(=O)c2cc(NC(=O)Nc3ccc(C(F)(F)F)cc3)ccc2O[C@H]1CN(C)S(=O)(=O)c1ccccc1
AC50 [7]: 7.36 µM (active)

CCC(C)[C@H]1CN=C(N)N1CCc1cccc2ccccc12 (some centres not stated)
IC50 [8]: > 20 µM (inactive)
CC50 [9]: 15.8 µM (active)
IC50 (cells [10]): 22.5 µM (active)
IC50 (Protein Wnt-3a): 6.06 µM (active)

COc1ccc(O)c(/C=N/NC(=O)c2ccc(OCc3cccc(Br)c3)cc2)c1
EC50 [11]: 2.97 µM (active)
EC50 [12]: 16.3 µM (active)
EC50 (BJ [13]): 110 µM (active)
IC50 [14]: 2.84 µM (active)
IC50 [15]: 3.56 µM (active)
IC50 [3]: 37.9 µM (active)
EC50 (cells [16]): > 350 µM (not active)
EC50 [17]: 17.5 µM (inconclusive)
EC50 (BJ [18]): 20.1 µM (active)
EC50 (BJ [19]): 9.05 µM (active)
EC50 [20]: 6.79 µM (active)
EC50 [21]: 0.77 µM (active)
AC50 (INS1): 2.61 µM (active)
EC50 (cells [22]): > 350 µM (not active)
IC50 [5]: > 100 µM (inactive)
AC50 (HEK293): 3.86 µM (active)
IC50 (Prothrombin): 68.3 µM (active)
AC50 (Cytochrome P450 3A4): 7.08 µM (inconclusive)
EC50 [23]: > 38 µM (not active)
EC50 [24]: 7.23 µM (active)
EC50 [25]: 0.239 µM (active)

Cc1c(C(=O)N/N=C/c2ccc(O)c(Br)c2)sc(N)c1C#N
IC50 [3]: 49.8 µM (active)
IC50 [5]: > 100 µM (inactive)
IC50 (Prothrombin): 48.9 µM (active)
IC50 [26]: 97.3 µM (active)
CC50 [27]: 78.2 µM (active)

C(=N\NC1=Nc2cccc3cccc1c23)/c1cccnc1
IC50 [3]: 11.9 µM (active)
CC50 [28]: > 40 µM (active)
EC50 [29]: 0.128 µM (active)
EC50 (H4): > 120 µM (not active)
EC50 [30]: 2.39 µM (active)
IC50 [5]: > 100 µM (inactive)
IC50 (Prothrombin): 14 µM (active)

C[C@@H]1CN([C@@H](C)CO)C(=O)c2cc(NS(=O)(=O)c3ccc(Cl)cc3)ccc2O[C@@H]1CN(C)Cc1ccc(-c2ccccc2)cc1
AC50 [7]: 3.31 µM (active)

C[C@@H]1CCCCO[C@@H](CN(C)Cc2ccc(Cl)c(Cl)c2)[C@@H](C)CN([C@H](C)CO)C(=O)c2cc(NC(=O)C3CCCCC3)ccc2O1
AC50 [7]: 2.9 µM (active)

C[C@H]1CN([C@@H](C)CO)C(=O)c2cc(NC(=O)Cc3cn(C)c4ccccc34)ccc2O[C@H]1CN(C)Cc1ccc(-c2ccccc2)cc1
AC50 [7]: 3.27 µM (active)
